Measurements from patent US20100119483A1, “PEPTIDE VIRAL ENTRY INHIBITORS” (Schering Corporation, priority 2004, published 2010).
Several values for one entry are separate records, joined by “and”; a condition that tells them apart may be missing. Equal entries are not always repeated. Ends that are not written are not given here.

How the values were obtained:
[1] = test system: HCV pseudoparticles; assay: HCV pseudoparticle (HCVpp) entry assay in Huh7 hepatoma cells, luciferase readout; format: cell-based, hepatitis C virus; conditions: for HCVpp % inh: peptide library screen, first screened at 100 ug/ml, cell entry inhibition vs uninhibited control; for luciferase units, HCV entry: duplicates
Summary of the method: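 Pseudoparticles carrying HCV E1/E2 on an HIV luciferase backbone were produced in 293T cells; peptide was pre-incubated 1 h at 37 °C with Huh7 cells, then virus added and luciferase read after 72 h. Dose-response used 10-point 3-fold titration from 100 ug/ml; envelope-less particles controlled non-specific entry.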

[2] = test system: amphotropic murine leukemia virus; assay: AMLV pseudotyped virus entry counter-screen, same infection protocol; format: cell-based; conditions: for AMLVpp % inh: peptide library screen, cell entry inhibition vs uninhibited control; for luciferase units, AMLV entry: duplicates
Description: Infection of hepatoma cell lines with HCV pseudotype particles and screen for inhibitory peptides. The hepatoma cells, Huh7, was seeded at 8000 cells in 90 ul medium in 96-well plate. In the case of the inhibitor screen, the inhibitor was incubated with cells for one hour at 37° C. and then 50 ul viral supernatant was added to the cells 24 hours after seeding. The viral stock was pre-tittered and diluted to yield approximately 10,000 to 20,000 RLU. The cells were incubated at 37° C. with 5% CO2 for additional 72 hours and were harvested for luciferase assay. Peptide stocks were prepared in 100% DMSO at 10 mg/ml and were first screened at 100 ug/ml and then a dose responsive curve was generated with 10 points 3-fold titration starting from 100 ug/ml.
The specificity of the peptides were counter-screened with AMLV and HIV pseudotyped viruses using the same infection protocol.

[3] = 0.01371742 uM of peptide (three lines)

“L-P-A-L-S-T-G-L-I-H-L-H-Q-N-V-V [SEQ ID NO: 73]” gave an HCVpp % inh [1] of 19% and an AMLVpp % inh [2] of 0%.

Substance “W-F-G-C-T-W-M-N-S-T-G-F-T-K-T-C (WFGCTWMNSTGFTKTC; HCV peptide) [SEQ ID NO: 54]” has an HCVpp % inh [1] of 39% and an AMLVpp % inh [2] of −15%.

“N-D-S-L-N-T-G-F-L-A-A-L-F-Y-V-H [SEQ ID NO: 37]” was tested, and the HCVpp % inh [1] was 14% and the AMLVpp % inh [2] was 15%.

For “D-V-L-L-L-N-N-T-R-P-P-Q-G-N-W-F [SEQ ID NO: 52]”, the HCVpp % inh [1] was 10% and the AMLVpp % inh [2] was 16%.

“P-C-T-V-N-F-T-I-F-K-V-R-M-Y-V-G (PCTVNFTIFKVRMYVG; HCV peptide) [SEQ ID NO: 64]” was tested, and the HCVpp % inh [1] was −2% and the AMLVpp % inh [2] was −30%.

“V-M-L-L-F-A-G-V-D-G-G-T-Y-V-T-G [SEQ ID NO: 29]” gave an HCVpp % inh [1] of −22% and an AMLVpp % inh [2] of 11%.

“A-I-K-W-E-Y-V-L-L-L-F-L-L [SEQ ID NO: 86]” was tested, and the “% control (HCVpp entry), alanine scanning” value (“% control (HCVpp entry)” below) ([1]; 0.1 nM of peptide (printed for three rows), two values per peptide and row) was 86 % control and 90 % control and 87 % control and 103 % control and 108 % control, the “% control (HCVpp entry)” value ([1]; 0.3 nM of peptide, two values per peptide) was 96 % control and 133 % control and the “% control (HCVpp entry)” value ([1]; 1 nM of peptide, two values per peptide) was 80 % control and 102 % control. The “% control (HCVpp entry)” value ([1]; 3 nM of peptide, two values per peptide) was 90 % control and 118 % control, the “% control (HCVpp entry)” value ([1]; 10 nM of peptide, two values per peptide) was 69 % control and 67 % control and the “luciferase units, HCV entry” value [1, 3] was 10981 luciferase units and 12701 luciferase units and 17159 luciferase units and 18427 luciferase units and 19121 luciferase units and 16287 luciferase units. For the same substance, the “% control (HCVpp entry)” value ([1]; 30 nM of peptide, two values per peptide) was 59 % control and 60 % control, the “luciferase units, HCV entry” value ([1]; 0.04115226 uM of peptide) was 8349 luciferase units and 8612 luciferase units and the “% control (HCVpp entry)” value ([1]; 100 nM of peptide, two values per peptide) was 48 % control and 33 % control. The “luciferase units, HCV entry” value ([1]; 0.1234568 uM of peptide) was 6445 luciferase units and 3869 luciferase units, the “% control (HCVpp entry)” value ([1]; 300 nM of peptide, two values per peptide) was 25 % control and 30 % control and the “luciferase units, HCV entry” value ([1]; 0.3703704 uM of peptide) was 5748 luciferase units and 3127 luciferase units. For the same substance, the “luciferase units, HCV entry” value ([1]; 1.111111 uM of peptide) was 3652 luciferase units and 3574 luciferase units, the “luciferase units, HCV entry” value ([1]; 3.333333 uM of peptide) was 2746 luciferase units and 2356 luciferase units and the “% control (HCVpp entry)” value ([1]; 10000 nM of peptide, two values per peptide) was 27 % control and 25 % control. For the same substance, the “luciferase units, HCV entry” value ([1]; 30 uM of peptide) was 1899 luciferase units and 1645 luciferase units, the “% control (HCVpp entry)” value ([1]; 30000 nM of peptide, two values per peptide) was 15 % control and 27 % control and the “% of control at ~30 uM” value ([1]; percentage of hepatitis C virus cellular entry at 30 μM peptide vs uninhibited control) was 13%. For the same substance, the “luciferase units, AMLV entry” value [2, 3] was 42295 luciferase units and 44556 luciferase units and 43059 luciferase units and 48854 luciferase units and 37783 luciferase units and 49462 luciferase units, the “luciferase units, AMLV entry” value ([2]; 0.04115226 uM of peptide) was 42084 luciferase units and 47952 luciferase units and the “luciferase units, AMLV entry” value ([2]; 0.1234568 uM of peptide) was 37163 luciferase units and 47412 luciferase units. The “luciferase units, AMLV entry” value ([2]; 0.3703704 uM of peptide) was 43543 luciferase units and 47987 luciferase units, the “luciferase units, AMLV entry” value ([2]; 1.111111 uM of peptide) was 40296 luciferase units and 43593 luciferase units and the “luciferase units, AMLV entry” value ([2]; 3.333333 uM of peptide) was 53350 luciferase units and 39047 luciferase units. The “luciferase units, AMLV entry” value ([2]; 10 uM of peptide) was 70573 luciferase units and 72462 luciferase units and the “luciferase units, AMLV entry” value ([2]; 30 uM of peptide) was 76174 luciferase units and 71333 luciferase units.

For “C-W-H-Y-A-P-R-P-C-G-I-V-P-A-A-Q [SEQ ID NO: 45]”, the HCVpp % inh [1] was 63% and the AMLVpp % inh [2] was −8%.

With “Y-V-G-D-L-C-G-S-V-F-L-V-A-Q-L-F [SEQ ID NO: 15]” the HCVpp % inh [1] was 16% and the AMLVpp % inh [2] was −31%.

“I-M-H-T-P-G-C-V-P-C-V-R-E-N-N-S [SEQ ID NO: 7]” was tested, and the HCVpp % inh [1] was 3% and the AMLVpp % inh [2] was −4%.

“R-I-P-Q-A-V-V-D-M-V-A-G-A-H-W-G [SEQ ID NO: 24]” gave an HCVpp % inh [1] of 25% and an AMLVpp % inh [2] of −2%.

In the case of “V-V-D-V-Q-Y-L-Y-G-I-G-S-A-V-V-S [SEQ ID NO: 75]”, the HCVpp % inh [1] is reported as 39% and the AMLVpp % inh [2] is reported as 44%.

With “G-S-G-P-W-L-T-P-R-C-L-V-H-Y-P-Y (GSGPWLTPRCLVHYPY; HCV peptide) [SEQ ID NO: 61]” the HCVpp % inh [1] was −15% and the AMLVpp % inh [2] was −8%.

In the case of “T-N-G-S-W-H-I-N-R-T-A-L-N-C-N-D (TNGSWHINRTALNCND; HCV peptide) [SEQ ID NO: 35]”, the HCVpp % inh [1] is reported as 29% and the AMLVpp % inh [2] is reported as 30%.

For “LKLFEVYLILWLA (HCV peptide) [SEQ ID NO: 138, scrambled 13-mer]”, the “luciferase units, HCV entry” value ([1]; 0.04115226 uM of peptide, listed as scrambled SEQ ID NO: 138) was 12287 luciferase units and 13159 luciferase units and 13838 luciferase units and 13589 luciferase units and 10645 luciferase units and 10230 luciferase units, the “luciferase units, HCV entry” value ([1]; 0.1234568 uM of peptide, listed as scrambled SEQ ID NO: 138) was 9257 luciferase units and 8961 luciferase units and 11382 luciferase units and 10746 luciferase units and 7229 luciferase units and 6598 luciferase units and the “luciferase units, HCV entry” value ([1]; 0.3703704 uM of peptide, listed as scrambled SEQ ID NO: 138) was 7620 luciferase units and 8597 luciferase units and 9180 luciferase units and 5716 luciferase units and 8494 luciferase units and 8291 luciferase units. The “luciferase units, HCV entry” value ([1]; 1.111111 uM of peptide, listed as scrambled SEQ ID NO: 138) was 6456 luciferase units and 7681 luciferase units and 9683 luciferase units and 9482 luciferase units and 9053 luciferase units and 7359 luciferase units, the “luciferase units, HCV entry” value ([1]; 3.333333 uM of peptide, listed as scrambled SEQ ID NO: 138) was 7729 luciferase units and 11535 luciferase units and 12632 luciferase units and 8653 luciferase units and 8028 luciferase units and 10288 luciferase units and the “luciferase units, HCV entry” value ([1]; 30 uM of peptide, listed as scrambled SEQ ID NO: 138) was 7047 luciferase units and 5340 luciferase units and 7406 luciferase units and 5158 luciferase units and 5107 luciferase units and 5826 luciferase units. The “activity compared to the wild type 13-mer peptide” value ([1]; HCVpp entry inhibition, in words) was “still showed some activity, though weakened”, the “luciferase units, AMLV entry” value ([2]; 0.04115226 uM of peptide, listed as scrambled SEQ ID NO: 106) was 43854 luciferase units and 39721 luciferase units and 46556 luciferase units and 44480 luciferase units and 40734 luciferase units and 47413 luciferase units and the “luciferase units, AMLV entry” value ([2]; 0.1234568 uM of peptide, listed as scrambled SEQ ID NO: 106) was 39298 luciferase units and 28711 luciferase units and 46132 luciferase units and 49974 luciferase units and 42958 luciferase units and 51726 luciferase units. For the same substance, the “luciferase units, AMLV entry” value ([2]; 0.3703704 uM of peptide, listed as scrambled SEQ ID NO: 106) was 48158 luciferase units and 45212 luciferase units and 49139 luciferase units and 49219 luciferase units and 51358 luciferase units and 50551 luciferase units, the “luciferase units, AMLV entry” value ([2]; 1.111111 uM of peptide, listed as scrambled SEQ ID NO: 106) was 49084 luciferase units and 39443 luciferase units and 53349 luciferase units and 51341 luciferase units and 46069 luciferase units and 46019 luciferase units and the “luciferase units, AMLV entry” value ([2]; 3.333333 uM of peptide, listed as scrambled SEQ ID NO: 106) was 50674 luciferase units and 41738 luciferase units and 60859 luciferase units and 50020 luciferase units and 51236 luciferase units and 49388 luciferase units. The “luciferase units, AMLV entry” value ([2]; 30 uM of peptide, listed as scrambled SEQ ID NO: 106) was 87785 luciferase units and 60410 luciferase units and 83010 luciferase units and 77083 luciferase units and 85612 luciferase units and 79287 luciferase units.

With “Y-C-F-T-P-S-P-V-V-V-G-T-T-D-R-F (YCFTPSPVVVGTTDRF; not fully specified (C-terminus); printed as Y-C-F-T-P-S-P-V-V-V-G-T-T-D-R-F) [SEQ ID NO: 48]” the HCVpp % inh [1] was 6% and the AMLVpp % inh [2] was 21%.

For “T-G-G-T-N-A-K-N-T-L-G-I-T-S-L-F [SEQ ID NO: 31]”, the HCVpp % inh [1] was 41% and the AMLVpp % inh [2] was −2%.

Substance “L-I-H-L-H-Q-N-V-V-D-V-Q-Y-L-Y-G [SEQ ID NO: 74]” has an HCVpp % inh [1] of 22% and an AMLVpp % inh [2] of 5%.

Work on “I-T-Y-N-E-S-H-S-S-D-Q-R-P-Y-C-W [SEQ ID NO: 43]” yielded an HCVpp % inh [1] of −13% and an AMLVpp % inh [2] of 17%.

With “L-E-A-A-C-N-W-T-R-G-E-R-C-N-L-E [SEQ ID NO: 67]” the HCVpp % inh [1] was 26% and the AMLVpp % inh [2] was 37%.

“S-W-G-E-N-E-T-D-V-L-L-L-N-N-T-R [SEQ ID NO: 51]” gave an HCVpp % inh [1] of 23% and an AMLVpp % inh [2] of 34%.

“Y-E-V-R-N-V-S-G-V-Y-H-V-T-N-D-C [SEQ ID NO: 3]” gave an HCVpp % inh [1] of 35% and an AMLVpp % inh [2] of 18%.

Work on “T-T-T-I-R-R-H-V-D-L-L-V-G-A-A-A [SEQ ID NO: 12]” yielded an HCVpp % inh [1] of 31% and an AMLVpp % inh [2] of −5%.

With “R-H-E-T-V-Q-D-C-N-C-S-I-Y-P-G-H [SEQ ID NO: 18]” the HCVpp % inh [1] was 5% and the AMLVpp % inh [2] was 17%.

Work on “D-M-V-A-G-A-H-W-G-V-L-A-G-L-A-Y [SEQ ID NO: 25]” yielded an HCVpp % inh [1] of 27% and an AMLVpp % inh [2] of 14%.

With “W-G-V-L-A-G-L-A-Y-Y-S-M-V-G-N-W [SEQ ID NO: 26]” the HCVpp % inh [1] was 50% and the AMLVpp % inh [2] was 27%.

“V-P-C-V-R-E-N-N-S-S-R-C-W-V-A-L [SEQ ID NO: 8]” showed an HCVpp % inh [1] of −22% and an AMLVpp % inh [2] of 14%.

“C-N-C-S-I-Y-P-G-H-V-T-G-H-R-M-A [SEQ ID NO: 19]” was tested, and the HCVpp % inh [1] was 49% and the AMLVpp % inh [2] was 26%.
